Measured values reported in patent publication US8404696B2, “Quinazoline-2,4-dione derivative, and medical compositions for the prophylaxis and treatment of cranial nerve disease containing the same” (Shin Poong Pharmaceutical Co., Ltd., priority 2008, dated 2013).
In brackets after ≈: the same amount, converted by molar mass.

Assays:
thoracic aorta of rats = test: Relaxing effect on thoracic aorta contracted by phenylephrine (organ bath); design: species or system rats of SD species; conditions: Rattus norvegicus; 67 μg/mL; phenylephrine 0.5 μM; mean n = 3; read-out: Relaxation percentage
Excerpt: After male rats of SD species (250-300 g) were anesthetized by inhalation of ether, their thoracic aortas were extracted and put into a Krebs buffer (mM; NaCl 118, NaHCO3 27.3, KCl 4.8, MgSO4 1.2, KH2PO4 1.0, CaCl2 1.25, glucose 11.1). 2 mm of aortic ring was made under dissecting microscope and cultured in an organ bath to measure the tension of blood vessels. The organ bath was filled with Krebs buffer and saturated with 95% O2, 5% CO2 to maintain dissolved oxygen and physiological pH. Changing of tension was measured by a tension meter (Hugo-sachs, model K30) and recorded by physiological recorder (Coulbourn polygraph). The length of the blood vessels was increased step by step to make 1.0 g of basal tension for 90 minutes. The equilibrated blood vessel was contracted by phenylephrine (0.5 μM). When the contraction furrow reached equilibrium, compounds were added, followed by observation of relaxation response.

[1] = system: superoxide dismutase (SOD); test: Increase of superoxide dismutase (SOD) activity in mouse brain cells; assay type: cell-based; conditions: 100 μg/ml
Experimental: (§1) ROS inhibitory effect of compounds was represented to the dose suppressing 50% of production of reactive oxygen compared to control. […] The activity of superoxide dismutase (SOD) was measured by using a kit acquired in Sigma.

mouse brain cells = test: Inhibitory effect on ROS production in brain cells (DCF-DA, NMDA-induced); assay type: cell-based; conditions: dose suppressing 50% of production of reactive oxygen compared to control, mouse brain cells; for IC50: 24 h, read-out: ROS inhibitory effect ID50
Experimental: Oxidative stress was measured to test inhibitory effects on the production of reactive oxygen species (ROS) by using DCF-DA, which is a fluorescent probe. Brain cells were obtained from brain cortex of mouse to prepare cell solution with 2×10^6 cells/ml. Each brain cell was treated with 11 μM of DCF-DA followed by reaction in 37° C., 5% CO2 incubator for an hour. After washing twice, Compound 3 was treated with a concentration of 125 μg/ml and 250 μg/ml. At the same time, 300 μM of NMDA was treated and it was incubated in 37° C., 5% CO2 incubator for 24 hours.
as §1

[2] = system: mixed culture of nerve cells-glial cells; test: Protecting effect on NMDA-induced nerve cell death (LDH release); assay type: cell-based, ICR mouse; conditions: 100 μM NMDA, LDH release after 24 hours
Experimental: Isolation and culture of nerve cells were performed by Choi's method (Choi, D. W. 1985, Neurosci. Lett., 58: 293-297). That is, the cortex was isolated in fetus ICR mouse that was 14 days pregnant, and then single cells were obtained from the tissue using pipette. The cells were aliquoted into 2×10^5/well density in a 24-well plate (Falcon) in which glial cells of cerebral cortex had been cultured in an incubator maintained at 37° C. with 5% CO2 for over 3 weeks. The culture medium was supplemented with MEM (minimum essential medium, Sigma), 2 mM glutamine, 21 mM glucose, 26.5 mM bicarbonate, 10% fetal bovine serum (FBS). In 3-5 days after aliquot, 10 μM Ara-C (cytosine arabinoside) was treated to suppress proliferation of neuroglia. And it was treated with 100 μM NMDA and 1 μg/mL or 2 μg/mL of each sample (compound) to induce the death of nerve cells due to excitable toxicity for 20 minutes, in 12-15 days after aliquot. Because of nerve cell death, lactate dehydrogenase (LDH) accumulated in proportion to the number of dead cells. In 24 hours after drug treatment, the amount of dehydrogenase (LDH) released to outside of cells was measured by using an […] measurement kit (CytoTox 96, Promega). After the reaction was completed, the change of absorbance depending on the amount of LDH was measured by using a microplate spectrophotometer.

[3] = system: pentylentetrazole (PTZ)-induced convulsion; test: Anti-convulsant effect, pentylentetrazole (PTZ) test; assay type: in vivo; conditions: 10 mg/kg intraperitoneally, PTZ 80 mg/kg subcutaneously; for mortality rate / Induction percentage of convulsion: (animals/total); for mortality rate: negative control 70(17/23); for Induction percentage of convulsion: negative control 100(23/23); for Initiation time of convulsion: negative control 5.0 ± 0.7; for Duration of convulsion: negative control 46.7 ± 3.3
Experimental: An experiment was performed by the method of Ali et al. (Ali, A. et al. 2006, Pharmacological Reports, 58: 242-245). A 10 mg/kg dose of compound was intraperitoneally administered to identify the anti-convulsant effect and the effect was observed (Table 8). Researching the process of activity was performed by the Anti-epileptic Drug Development Program (ADD) of NIH during development of the anti-convulsant drug. One of the assessed items of anti-convulsant activity in the first step of this program is the pentylentetrazole (PTZ) test. […] After 10 mg/kg of the testing drug was administered, assessment was performed by estimating the initiation time of convulsion, duration until convulsion completely disappeared and mortality rate. It was assessed as having an anti-convulsant effect when a single episode of clonic spasm was not shown over 5 seconds on at least one of the 4 laboratory animals after PTZ administration.

SMILES | inhibition at 67 µg/mL (thoracic aorta of rats) [%] | Increase of SOD activity, compared to control [1] | IC50 (mouse brain cells) [µg/mL] | Inhibitory effect of cell death by NMDA-induced excitable neurotoxicity ([2]; 1 μg/ml compound) [%] | Inhibitory effect of cell death by NMDA-induced excitable neurotoxicity ([2]; 2 μg/ml compound) [%] | ROS inhibitory effect ID50 (mouse brain cells) [µg/mL] | mortality rate [3] | Induction percentage of convulsion [3] | Initiation time of convulsion [3] [min] | Duration of convulsion [3] [min]
CCOC(=O)N(CCCCNCCCn1c(=O)[nH]c2ccccc2c1=O)CCCn1c(=O)[nH]c2ccccc2c1=O [Compound 5, [3-(2,4-dioxo-1,4-dihydro-2H-quinazolin-3-yl)propyl]-{4-[3-(2,4-dioxo-1,4-dihydro-2H-quinazolin-3-yl)propylamino]butyl}carbamic Acid ethyl ester] | 19.2 | 2.5 ± 2.8 | 24.4 ± 10.5 (≈ 43.2 µM) | 11.4 | 39.4 |  |  |  |  | 
CC(=O)N(CCCCN(CCCn1c(=O)[nH]c2ccccc2c1=O)Cc1ccccc1)CCCn1c(=O)[nH]c2ccccc2c1=O [Compound 13, N-(4-{benzyl-[3-(2,4-dioxo-1,4-dihydro-2H-quinazolin-3-yl)propyl]amino}butyl)-N-[3-(2,4-dioxo-1,4-dihydro-2H-quinazolin-3-yl)propyl]acetamide] | 9.3 | 7.6 ± 2.9 | 87.3 ± 10.9 (≈ 140 µM) | 17.4 | 23.0 |  |  |  |  | 
CCOC(=O)N(CCCCN(CCCn1c(=O)[nH]c2ccccc2c1=O)C(C)=O)CCCn1c(=O)[nH]c2ccccc2c1=O [Compound 14, (4-{acetyl-[3-(2,4-dioxo-1,4-dihydro-2H-quinazolin-3-yl)propyl]amino}butyl)-[3-(2,4-dioxo-1,4-dihydro-2H-quinazolin-3-yl)propyl]carbanic Acid ethyl ester] |  | 2.7 ± 1.0 |  | 18.9 | 26.9 | 90.1 ± 12.2 | 0(0/6) % | 100(6/6) % | 8.5 ± 1.8 | 2.9 ± 2.1
CC(=O)N(CCCCn1c(=O)[nH]c2ccccc2c1=O)CCCn1c(=O)[nH]c2ccccc2c1=O [Compound 22, N-[4-(2,4-dioxo-1,4-dihydro-2H-quinazolin-3-yl)butyl]-N-[3-(2,4-dioxo-1,4-dihydro-2H-quinazolin-3-yl)propyl]acetamide] |  | 3.7 ± 0.8 | 172 ± 23.6 (≈ 361 µM) | 17.0 | 14.0 |  | 0(0/6) % | 83(5/6) % | 15.2 ± 9.0 | 7.0 ± 3.2
O=c1[nH]c2ccccc2c(=O)n1CCCNCCCNCCCn1c(=O)[nH]c2ccccc2c1=O [Compound 24, 3-(3-{3-[3-(2,4-dioxo-1,4-dihydro-2H-quinazolin-3-yl)propylamino]propylamino}propyl)-1H-quinazoline-2,4dione] |  | 6.9 ± 3.8 | 122 ± 32.4 (≈ 256 µM) | 27.4 | 30.3 |  | 50(3/3) % | 100(6/6) % | 6.1 ± 1.7 | 35.7 ± 84
Cn1c(=O)n(CCCNCCCCNCCCn2c(=O)c3ccccc3n(C)c2=O)c(=O)c2ccccc21 [Compound 27, 1-methyl-3-(3-{4-[3-(1-methyl-2,4-dioxo-1,4-dihydro-2H-quinazolin-3-yl)propylamino]butylamino}propyl)-1H-quinazoline-2,4-dione] |  | 2.4 ± 7.8 | 21.9 ± 16.1 (≈ 42.1 µM) | 33.7 | 36.0 |  | 50(3/6) % | 100(6/6) % | 8.4 ± 2.6 | 35.8 ± 9.8
O=c1[nH]c2ccccc2c(=O)n1CCCNCCNCCCn1c(=O)[nH]c2ccccc2c1=O [Compound 29, 3-(3-{2-[3-(2,4-dioxo-1,4-dihydro-2H-quinazolin-3-yl)propylamino]ethylamino}propyl)-1H-quinazoline-2,4-dione] |  | 3.0 ± 1.1 | 10.1 ± 17.3 (≈ 21.7 µM) | 8.5 | 29.5 |  | 17(1/6) % | 83(5/6) % | 18.2 ± 9.1 | 30.3 ± 11.1
CCCCCCn1c(=O)n(CCCN(CCCCN(CCCn2c(=O)c3ccccc3n(CCCCCC)c2=O)C(=O)OC(C)(C)C)C(=O)OC(C)(C)C)c(=O)c2ccccc21 [Compound 32, (4-{tert-butoxycarbonyl-[3-(1-hexyl-2,4-dioxo-1,4-dihydro-2H-quinazolin-3-yl)propyl]amino}butyl)-[3-(1-hexyl-2,4-dioxo-1,4-dihydro-2H-quinazolin-3-yl)propyl]carbamic acid tert-butyl ester] |  | 0.3 ± 7.1 | 14.4 ± 7.6 (≈ 16.7 µM) | 32.0 | 29.8 |  | 50(3/6) % | 100(5/6) % | 11.3 ± 4.5 | 29.8 ± 12.0
CCCCCCn1c(=O)n(CCCNCCCCNCCCn2c(=O)c3ccccc3n(CCCCCC)c2=O)c(=O)c2ccccc21 [Compound 33, 1-hexyl-3-(3-{4-[3-(1-hexyl-2,4-dioxo-1,4-dihydro-2H-quinazolin-3-yl)propylamino]butylamino}propyl)-1H-quinazoline-2,4-dione] | 38.5 |  | 173 ± 19.7 (≈ 261 µM) | 14.6 | 65.1 |  | 83(5/6) % | 100(6/6) % | 16.1 ± 2.2 | 36.6 ± 7.6
Cc1ccc(S(=O)(=O)N(CCCCNCCCn2c(=O)[nH]c3ccccc3c2=O)CCCn2c(=O)[nH]c3ccccc3c2=O)cc1 [Compound 40, N-[3-(2,4-dioxo-1,4-dihydro-2H-quinazolin-3-yl)propyl]-N-{4-[3-(2,4-dioxo-1,4-dihydro-2H-quinazolin-3-yl)propylamino]butyl}-4-methylbenzenesulfonamide] |  | 8.3 ± 3.2 | 31 ± 8.1 (≈ 47.9 µM) |  | 34.5 |  | 83(5/6) % | 100(6/6) % | 11.2 ± 2.4 | 42.3 ± 8.5
